Data from patent US5047419A, “Photodynamic therapy of glioma or mammary carcinoma using seleno- or telluropyrylium salts” (Eastman Kodak Company, priority 1988, dated 1991).
Where two headings read alike, the source gives them in different places.

Tests used:
[1] = In vitro photodynamic treatment, control CV-1 cells; type: cell-based, monkey; settings: monkey, cv-1 kidney cells, dark, read-out: % Surviving Fraction, Dark; for viability at 1 µM: CV1, 1 × 10^-6 M
Method: (§1) Several selenopyrylium dyes and telluropyrylium dyes from Table I that generated singlet oxygen upon irradiation in air-saturated methanol were examined in vitro in mammalian cell cultures for their effectiveness as agents for photodynamic therapy. […] As controls, HSK1 (normal human skin fibroblasts) and CV-1 (normal monkey kidney cells) were used.
(§2) In vitro cell cultures were grown in antibiotic-free growth medium DMEM-F12 supplemented to 10% with fetal bovine serum and adjusted to 4.5 mM with L-glutamine. DMEM-F12 is a 1:1 mixture of Dulbecco's modified Eagle's medium (Gibco) and Ham's nutrient mixture F12 (Gibco). Prior to cell seeding, multi-well plates were blackened with spray paint, coating the external walls of each well to minimize light scattering from well to well. Subconfluent cell cultures were trypsinized and plated at a concentration of 10^5 cells per 2 cm^2 well. Cells were allowed to incubate overnight at 37° C. in a humidified atmosphere before dye and/or light exposure.
(§3) Stock solutions of the chalcogenopyrylium dyes were prepared at 1 mM concentration by sonication in 95% ethanol in the dark. These stock solutions were diluted with growth medium to the desired concentration. Dyes were protected from light throughout the entire experimental procedure until the time for irradiation. Standard treatment time for dye exposure was 1 hour. The dye containing medium was replaced with fresh growth medium prior to irradiation. Eighteen to twenty-four hours later, the remaining metabolically active cells were evaluated by the MTT colorimetric assay and/or cell counting. Assays were performed in triplicate with standard deviations generally of less than 10%. Percent kill was determined from mean optical density of the treated samples and that of the control (untreated) samples for the MTT analysis and from mean cell counts for these two groups for the cell-counting method. (See Table V).
(§4) Near-infrared and visible light from three sources were employed in these assays. Tungsten light (100-200 mW) was used to assess low milliwatt multiple wavelength effects. An argon-pumped dye laser (Model 150 Aurora, Cooper Lasersonics, Inc., Santa Clara, Calif.) with laser dye LDS 751 (Exciton Chemical Co., Inc., Dayton, Ohio) and a peak wavelength of 785±5 nm was coupled by a […] quartz fiberoptic to a microlens assembly that gave a uniform mode of distribution of light intensity. Thirdly, a laser diode (Model 2430-H2, Spectra Diode Laboratories, Inc., San Jose, Calif. with a fixed wavelength of 800±2 nm provided light energy in the near infrared. The diode was coupled by a 400 μm quartz fiberoptic with a clear and polished end. For laser irradiation experiments, the distance of the fiber tip from the well bottom was adjusted so that the laser irradiation exactly covered the 2 cm^2 target area. A distal power meter (Model 2000, Coherent, Inc., Auburn, Calif.) was used to determine the energy output of the laser source.

[2] = tested on: CV-1 (normal monkey kidney cells); test: as above; type: cell-based; settings: Primates
Method: as §1, §2, §3, §4

[3] = Quantum efficiency of singlet oxygen generation in air-saturated solution; type: physicochemical; settings: air-saturated solution
Excerpt: (§5) The ability of the dyes of this invention to function as a cancer-treating agent is in part a reflection of the ability of the dye to generate singlet oxygen in air-saturated solution. (As used herein, "air-saturated solution" means a solution of dye exposed to the atmosphere.) In studying a variety of chalcogenopyrylium dyes, only those dyes containing a selenium or tellurium atom show any appreciable generation of singlet oxygen upon irradiation. Fortuitously, selenopyrylium and telluropyrylium dyes have absorption maxima that are shifted to the red relative to their pyrylium and thiopyrylium analogues. That is, not only are these dyes effective in killing cancer cells because of their high quantum efficiency, but also they generally operate at the most preferred wavelengths, namely those of 700 nm or longer. Table III contains examples of chalcogenopyrylium dyes, their quantum efficiencies for singlet oxygen generation, and their absorption maxima. (In this Table, Ph=Phenyl, Me=Methyl, and t-Bu=tertiary butyl.)

[4] = In vitro photodynamic therapy, B-16 cells; type: cell-based, mouse; settings: mouse, b-16 melanoma cells, dark, read-out: % Surviving Fraction, Dark; for viability at 1 µM: B-16, 1 × 10^-6 M
Method: as §1, §2, §3, §4

[5] = tested on: B-16 melanoma (mouse melanoma); test: In vitro photodynamic therapy, B-16 cells; type: cell-based; settings: Mus musculus
Method: as §1, §2, §3, §4

[6] = In vitro photodynamic therapy, FADU cells; type: cell-based, human; settings: human, fadu squamous cell carcinoma, FADU, dark, read-out: % Surviving Fraction, Dark; for viability at 1 µM: 1 × 10^-6 M
Method: as §1, §2, §3, §4

[7] = tested on: FADU (human squamous cell carcinoma); test: In vitro photodynamic therapy, FADU cells; type: cell-based; settings: Homo sapiens, read-out: % Surviving Fraction, Light
Method: as §1, §2, §3, §4

[8] = Absorption maxima (λmax) of chalcogenopyrylium dyes; type: physicochemical
Excerpt: as §5

[9] = In vitro photodynamic therapy, U251 cells; type: cell-based, human; settings: human, u251 glioma cells, dark, read-out: % Surviving Fraction, Dark; for viability at 1 µM: U251, 1 × 10^-6 M; for viability at 0.1 µM: U251, 1 × 10^-7 M
Method: as §1, §2, §3, §4

U251 (human glioma) = test: In vitro photodynamic therapy, U251 cells; type: cell-based; settings: Homo sapiens, U-251, read-out: % Surviving Fraction, Light; for viability at 1 µM: U251, 1 × 10^-6 M; for viability at 0.1 µM: U251, 1 × 10^-7 M
Method: as §1, §2, §3, §4

[10] = In vitro photodynamic treatment, control HSK1 cells; type: cell-based, human; settings: human, hsk1 skin fibroblasts, dark, read-out: % Surviving Fraction, Dark; for viability at 0.1 µM: HSK1, 1 × 10^-7 M
Method: as §1, §2, §3, §4

[11] = tested on: HSK1 (normal human skin fibroblasts); test: as above; type: cell-based; settings: Homo sapiens, Skin fibroblast, read-out: % Surviving Fraction, Light; for viability at 0.1 µM: HSK1, 1 × 10^-7 M
Method: as §1, §2, §3, §4

Stability in solution = type: physicochemical
[12] = CV-1, read-out: % Surviving Fraction, Light
[13] = B16, read-out: % Surviving Fraction, Light
[14] = 15 J cm^-2, source A (tungsten)
[15] = 50 J cm^-2, source A (tungsten)

Question: Which results are given for `CC(C)(C)C1=CC(=CC=Cc2cc(C(C)(C)C)[o+]c(C(C)(C)C)c2)C=C(C(C)(C)C)O1.[Cl-]` [C.E. 3, 2,6-Di-t-butyl-4-[3-(2,6-di-t-butyl-4H-pyran-4-ylidene)-1-propen-1-yl]pyrylium chloride, reference compound]?
Answer: viability at 1 µM [1]: 100%; viability at 1 µM ([2]; CV-1, CV1, 1 × 10^-6 M, 27 J cm^-2, source D (tungsten, 500 nm cutoff), read-out: % Surviving Fraction, Light): 99%; Quantum efficiency of singlet oxygen generation Φ(1O2) [3]: ≤ 0.001; viability at 1 µM [4]: 99%; viability at 1 µM ([5]; B16, B-16, 1 × 10^-6 M, 27 J cm^-2, source D (tungsten, 500 nm cutoff), read-out: % Surviving Fraction, Light): 99%; viability at 1 µM [6]: 99%; viability at 1 µM ([7]; FADU, 1 × 10^-6 M, 27 J cm^-2, source D (tungsten, 500 nm cutoff)): 99%; Absorption maximum λmax ([8]; H2O): 595 nm

Question: Which results are given for `CC(C)(C)C1=CC(=CC=Cc2cc(C(C)(C)C)[se+]c(C(C)(C)C)c2)C=C(C(C)(C)C)[Te]1` [Dye 1]?
Answer: viability at 0.05 µM ([1]; CV1, 5 × 10^-8 M): 100%; viability at 0.05 µM [2, 12]: 99%; Quantum efficiency of singlet oxygen generation Φ(1O2) [3]: 0.09; viability at 0.05 µM ([4]; B-16, 5 × 10^-8 M): 99%; viability at 0.05 µM [5, 13]: 0.03%; viability at 0.05 µM ([9]; U251, 5 × 10^-8 M): 85%; viability at 0.05 µM (U251 (human glioma); U251, 5 × 10^-8 M, 15 J cm^-2, source C (diode laser 800 nm)): 65%; viability at 0.05 µM ([6]; 5 × 10^-8 M): 99%; viability at 0.05 µM ([7]; FaDu): 0.1%; Absorption maximum λmax ([8]; CH2Cl2): 786 nm; viability at 0.05 µM ([10]; HSK1, 5 × 10^-8 M): 99%; viability at 0.05 µM ([11]; HSK1, 5 × 10^-8 M, 15 J cm^-2, source C (diode laser 800 nm)): 97%

Question: For `CC(C)(C)C1=CC(=CC=Cc2cc(C(C)(C)C)[te+]c(C(C)(C)C)c2)C=C(C(C)(C)C)[Te]1` [Dye 4], which viability at 1 µM [1] is on record?
Answer: The viability at 1 µM was 99%.

Question: What about the viability at 1 µM [2, 12] of the same molecule?
Answer: Its viability at 1 µM is 95%.

Question: And the “Quantum efficiency of singlet oxygen generation Φ(1O2)” value (“Quantum efficiency” for short) [3]?
Answer: Its value is 0.13.

Question: What about the viability at 1 µM [4] of the same molecule?
Answer: The viability at 1 µM was 99%.

Question: And the viability at 1 µM [5, 13]?
Answer: Its viability at 1 µM is 30%.

Question: What about the viability at 1 µM [9] of the same molecule?
Answer: Its viability at 1 µM is 100%.

Question: And the viability at 1 µM (U251 (human glioma); 50 J cm^-2, source B (dye laser 785 nm))?
Answer: The viability at 1 µM was 75%.

Question: What about the “Absorption maximum λmax” value ([8]; CH2Cl2) of the same molecule?
Answer: The value was 830 nm.

Question: With `CC(C)(C)C1=CC(=CC=Cc2cc(C(C)(C)C)[o+]c(C(C)(C)C)c2)C=C(C(C)(C)C)[Te]1` [Dye 5] as the molecule, how does the viability at 0.1 µM ([1]; CV1, 1 × 10^-7 M) read?
Answer: The viability at 0.1 µM was 100%.

Question: And the viability at 0.1 µM [2, 12]?
Answer: Its viability at 0.1 µM is 99%.

Question: What about the “Quantum efficiency” value [3] of the same molecule?
Answer: The value was 0.06.

Question: And the viability at 0.1 µM ([4]; B-16, 1 × 10^-7 M)?
Answer: Its viability at 0.1 µM is 99%.

Question: And the viability at 0.1 µM [5, 13]?
Answer: Its viability at 0.1 µM is 0.1%.

Question: And the viability at 0.1 µM [9]?
Answer: Its viability at 0.1 µM is 90%.

Question: What about the viability at 0.1 µM (U251 (human glioma); [14]) of the same molecule?
Answer: Its viability at 0.1 µM is 58%.

Question: And the viability at 0.1 µM ([6]; 1 × 10^-7 M)?
Answer: The viability at 0.1 µM was 99%.

Question: What about the viability at 0.1 µM ([7]; FaDu) of the same molecule?
Answer: The viability at 0.1 µM was 0.05%.

Question: And the “Absorption maximum λmax” value ([8]; H2O)?
Answer: The value was 700 nm.

Question: And the viability at 0.1 µM [10]?
Answer: Its viability at 0.1 µM is 99%.

Question: And the viability at 0.1 µM [11, 14]?
Answer: Its viability at 0.1 µM is 99%.

Question: Which results are given for `CC(C)(C)C1=CC(=CC=Cc2cc(C(C)(C)C)[o+]c(C(C)(C)C)c2)C=C(C(C)(C)C)[Se]1` [Dye 9]?
Answer: viability at 1 µM [1]: 100%; viability at 1 µM [2, 12]: 99%; Quantum efficiency of singlet oxygen generation Φ(1O2) [3]: 0.005; viability at 1 µM [4]: 99%; viability at 1 µM [5, 13]: 0.2%; viability at 1 µM [6]: 99%; viability at 1 µM ([7]; FaDu): 0.2%; Absorption maximum λmax ([8]; H2O): 660 nm

Question: With `CC(C)(C)C1=CC(=Cc2cc(C(C)(C)C)[te+]c(C(C)(C)C)c2)C=C(C(C)(C)C)[Te]1` [Dye 12] as the molecule, how does the “Quantum efficiency” value [3] read?
Answer: Its value is 0.07.

Question: And the viability at 1 µM [9]?
Answer: The viability at 1 µM was 55%.

Question: And the viability at 0.1 µM [9]?
Answer: Its viability at 0.1 µM is 83%.

Question: What about the viability at 1 µM (U251 (human glioma); [15]) of the same molecule?
Answer: Its viability at 1 µM is 1%.

Question: And the viability at 0.1 µM (U251 (human glioma); [15])?
Answer: Its viability at 0.1 µM is 74%.

Question: What about the “Absorption maximum λmax” value ([8]; H2O) of the same molecule?
Answer: The value was 705 nm.

Question: And the viability at 0.1 µM [10]?
Answer: Its viability at 0.1 µM is 100%.

Question: And the viability at 0.1 µM [11, 15]?
Answer: Its viability at 0.1 µM is 99%.

Question: With `C(=CC=C1C=C(c2ccccc2)[Te]C(c2ccccc2)=C1)C=Cc1cc(-c2ccccc2)[te+]c(-c2ccccc2)c1` [Dye 16] as the molecule, how does the “Quantum efficiency” value [3] read?
Answer: The value was 0.005.

Question: And the Stability in solution (Stability in solution)?
Answer: The Stability in solution was “tended to be unstable in solution”.

Question: And the “Absorption maximum λmax” value ([8]; MeOH)?
Answer: The value was 1060 nm.
